# Measured values reported in patent US7732617B2, “Tocopherol derivatives and uses thereof” (Brock University, priority 2007, dated 2010).
# Tests used:
# HepG2/C3A = experiment: Cell protein and monolayer morphology of HepG2/C3A cultures; format: cell-based, human; conditions: 48 hours
# Procedure: (§1) (R)-2-(9-(1H-1,2,4-triazol-1-yl)nonyl)-2,5,7,8-tetramethylchroman-6-ol and γ-tocopherol stock solutions were prepared in ethanol. Confluent cultures of the human heptoblastoma cell line, HepG2/C3A, were pre-incubated with varying concentrations of (R)-2-(9-(1H-1,2,4-triazol-1-yl)nonyl)-2,5,7,8-tetramethylchroman-6-ol or ethanol for 4 hours, followed by addition of 25 μM γ-tocopherol. After 48 hours, culture media was collected and analyzed for ω-oxidation products of γ-tocopherol (the 3′- and 5′-carboxychromanols) by GC-MS, using d9-3′-carboxyethylchromanol as internal standard (Sontag T J et al. (2002) J Biol Chem 277: 25290-25296).
# There was no effect of (R)-2-(9-(1H-1,2,4-triazol-1-yl)nonyl)-2,5,7,8-tetramethylchroman-6-ol on cell protein and all monolayers appeared normal in morphology.
# tocopherol hydroxylase = experiment: Tissue enrichment in δ-tocopherol in mice in vivo (diet feeding, GC-MS); conditions: 10 days
# Procedure: Two groups of mice (n=3) were fed a chow diet enriched with δ-tocopherol (6000 mg per kg diet), with or without 500 mg per kg (R)-2-(9-(1H-1,2,4-triazol-1-yl)nonyl)-2,5,7,8-tetramethylchroman-6-ol. After 10 days on diet, mice were fasted for 5 hrs, euthanized, and tocopherol concentrations determined in plasma, liver and bile, using GC-MS procedures and d9-3′-carboxyethylchromanol as internal standard (Sontag T J et al.).
# Therefore data shown in FIG. 2 are presented as the δ-tocopherol/α-tocopherol ratio, where an increase in the ratio reflects enrichment in δ-tocopherol relative to α-tocopherol.
# [1] = biological target: T1, tocopherol hydroxylase activity in HepG2/C3A cultures (Homo sapiens, UniProt P78329); experiment: Metabolism of γ-tocopherol (ω-oxidation products by GC-MS) in HepG2/C3A hepatoblastoma cultures; format: cell-based; conditions: 48 hours; for EC50: 4 hour pre-incubation, 25 μM γ-tocopherol as substrate, read-out: concentration required to inhibit tocopherol hydroxylase activity by 50% (EC50)
# T1 construct: Confluent cultures of the human heptoblastoma cell line, HepG2/C3A; endogenous in cells; host or cells: HepG2/C3A
# T1 sequence (P78329 5-520): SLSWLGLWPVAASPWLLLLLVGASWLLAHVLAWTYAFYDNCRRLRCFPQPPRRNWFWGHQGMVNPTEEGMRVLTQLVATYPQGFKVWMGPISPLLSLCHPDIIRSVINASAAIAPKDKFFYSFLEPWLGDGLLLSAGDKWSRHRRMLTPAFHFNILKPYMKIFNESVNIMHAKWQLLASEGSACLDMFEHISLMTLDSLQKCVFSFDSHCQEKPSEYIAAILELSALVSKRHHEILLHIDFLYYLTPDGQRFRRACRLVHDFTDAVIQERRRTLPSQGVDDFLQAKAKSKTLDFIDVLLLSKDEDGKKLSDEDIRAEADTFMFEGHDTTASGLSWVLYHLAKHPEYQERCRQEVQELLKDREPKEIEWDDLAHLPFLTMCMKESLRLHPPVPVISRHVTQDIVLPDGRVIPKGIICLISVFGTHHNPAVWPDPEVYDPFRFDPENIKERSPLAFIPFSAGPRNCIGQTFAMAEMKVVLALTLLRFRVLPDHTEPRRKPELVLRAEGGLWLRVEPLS
# Procedure: as §1
# The effect of the triazole compounds were tested in human hepatoblastoma cell culture as described in Example 1, i.e. using 25 μM γ-tocopherol as substrate and 4 hour pre-incubation with the synthetic inhibitors.
# [2] = 500 mg per kg diet with δ-tocopherol 6000 mg per kg diet, versus control, P<0.05
effect on cell protein (HepG2/C3A),morphology of monolayers (HepG2/C3A),EC50 [1],"Tocopherol hydroxylase activity ([1]; at compound concentrations above 10 nM, 25 μM γ-tocopherol)",SMILES,δ-tocopherol/α-tocopherol ratio in mouse liver (tocopherol hydroxylase; [2]),"α-tocopherol status (tocopherol hydroxylase; mice, 500 mg per kg diet)",δ-tocopherol/α-tocopherol ratio in bile (tocopherol hydroxylase; [2])
no effect,normal,~1 nM,completely abolished,"Cc1c(C)c2c(c(C)c1O)CC[C@@](C)(CCCCCCCCCn1cncn1)O2 [(R)-2-(9-(1H-1,2,4-triazol-1-yl)nonyl)-2,5,7,8-tetramethylchroman-6-ol]",doubling,no evidence that α-tocopherol status was affected,
,,1 to 2 nM,,"Cc1c(C)c2c(c(C)c1O)CC[C@@](C)(CCCCCCCCCn1ccnc1)O2 [(R)-2-(9-(1H-imidazol-1-yl)nonyl)-2,5,7,8-tetramethylchroman-6-ol]",,,tripled
